Legend:
[1] = Acute Oral Toxicity (7 day observation in the mouse); type: in vivo
[2] = Cytotoxicity (MEM Elution) of organic antimicrobial valve material; type: cell-based

## CCCCOC(=O)c1ccc(O)cc1 [Butyl Paraben, butyl p-hydroxy Benzoate]
[1]
  Acute Oral Toxicity (7 day observation in the mouse): Nontoxic
[2]
  Cytotoxicity (MEM Elution) on the device with valve material: Nontoxic

## Oc1cc(Cl)ccc1Oc1ccc(Cl)cc1Cl [Triclosan, 2,4,4′-trichloro-2′-hydroxydiphenyl ether]
[1]
  Acute Oral Toxicity (7 day observation in the mouse): Nontoxic
[2]
  Cytotoxicity (MEM Elution) on the device with valve material: Nontoxic
[2]; valve material alone
  Cytotoxicity (MEM Elution) on the valve material alone: Toxic
